Results from patent publication US12162901B2, “N-acetylated sialic acids and related sialosides” (priority 2016, dated 2024).

Legend:
BJA-B K20 cells = assay: Feeding of free sialic acids to BJA-B K20 cells, PToV probes, flow cytometry; type: cell-based, human; conditions: 1 mM, three days; PToV with active esterase
[1] = molecular target: bovine coronavirus hemagglutinin-esterase (BCoV-Mebus-Fc, esterase inactivated) (Bovine coronavirus, UniProt P15776, S40A); assay: Sialoglycan microarray binding of BCoV-Mebus-Fc (esterase inactive); conditions: without esterase treatment (FIG. 3A)

Row | SMILES | resistance of cell surface sialic acid to virus-hemagglutinin-esterase activity (BJA-B K20 cells) | binding of BCoV on glycan microarray [1]
1 | CC(=O)N[C@H]1[C@H]([C@H](O)[C@H](O)COC(C)=O)OC(O)(C(=O)O)C[C@@H]1O (stereo partly shown) [Neu5,9Ac2, 9-O-acetyl-N-acetylneuraminic acid] | only Neu5Ac9NAc-fed ones were resistant | –
2 | CC(=O)N[C@H]1[C@H]([C@H](O)[C@H](O)COC(C)=O)O[C@@](O[C@H]2[C@@H](O)[C@@H](CO)O[C@@H](O[C@H]3[C@H](O)[C@@H](O)[C@H](OCCCN)O[C@@H]3CO)[C@@H]2O)(C(=O)O)C[C@@H]1O [Neu5,9Ac2α3Galβ4GlcβProNH2] | – | prefer binding
3 | CC(=O)NC[C@@H](O)[C@@H](O)[C@@H]1OC(O)(C(=O)O)C[C@H](O)[C@H]1NC(C)=O (stereo partly drawn) [Neu5Ac9NAc, 5,9-Diacetamido-3,5,9-Trideoxy-D-glycero-D-galacto-2-nonulopyranosylonic Acid] | resistant to virus-hemagglutinin-esterase activity | –
4 | CC(=O)NC[C@@H](O)[C@@H](O)[C@@H]1O[C@@](O[C@H]2[C@@H](O)[C@@H](CO)O[C@@H](O[C@H]3[C@H](O)[C@@H](O)[C@H](OCCCN)O[C@@H]3CO)[C@@H]2O)(C(=O)O)C[C@H](O)[C@H]1NC(C)=O [Neu5Ac9NAcα3Galβ4GlcβProNH2, 3-Aminopropyl O-(5,9-Diacetamido-3,5,9-trideoxy-D-glycero-α-D-galacto-2-nonulopyranosylonic acid)-(2→3)-O-β-D-galactopyranosyl-(1→4)-β-D-glucopyranoside] | – | prefer binding
